# Reference: PMC12203311, “Design, synthesis, in silico and in vitro evaluation of pyrrole–indole hybrids as dual tubulin and aromatase inhibitors with potent anticancer activities” (RSC Advances, 2025)
# Assays:
# Test in all cases: NCI60 five-dose screen
# HL-60 (TB) = format: cell-based; conditions: Homo sapiens, leukemia; for CC50: read-out: LC50 (the source's name)
# A549/ATCC = format: cell-based; conditions: Homo sapiens, NSC lung cancer; for CC50: read-out: LC50 (the source's name)
# EKVX = format: cell-based; conditions: Homo sapiens, NSC lung cancer; for CC50: read-out: LC50 (the source's name)
# HOP-62 = format: cell-based; conditions: Homo sapiens, HOP-62, NSC lung cancer; for CC50: read-out: LC50 (the source's name)
# HOP-92 = format: cell-based; conditions: Homo sapiens, HOP-92, NSC lung cancer; for CC50: read-out: LC50 (the source's name)
# NCI-H23 = format: cell-based; conditions: Homo sapiens, NCI-H23, NSC lung cancer; for CC50: read-out: LC50 (the source's name)
# NCI-H322M = format: cell-based; conditions: Homo sapiens, NSC lung cancer; for CC50: read-out: LC50 (the source's name)
# COLO 205 = format: cell-based, human; conditions: Homo sapiens; for CC50: COLO 205, COLO 205, colon cancer, read-out: LC50 (the source's name); for GI50: COLO 205, colon cancer
# HCT-15 = format: cell-based; conditions: Homo sapiens, HCT-15, colon cancer; for CC50: read-out: LC50 (the source's name)
# KM12 = format: cell-based; conditions: Homo sapiens, KM12, colon cancer; for CC50: read-out: LC50 (the source's name)
# SW-620 = format: cell-based; conditions: Homo sapiens, SW-620, colon cancer; for CC50: read-out: LC50 (the source's name)
# SF-268 = format: cell-based; conditions: Homo sapiens, SF-268, CNS cancer; for CC50: read-out: LC50 (the source's name)
# SF-295 = format: cell-based; conditions: Homo sapiens, SF-295, CNS cancer; for CC50: read-out: LC50 (the source's name)
# MALME-3M = format: cell-based; conditions: Homo sapiens, melanoma; for CC50: read-out: LC50 (the source's name)
# SK-MEL-2 = format: cell-based; conditions: Homo sapiens, SK-MEL-2, melanoma; for CC50: read-out: LC50 (the source's name)
# SK-MEL-28 = format: cell-based; conditions: Homo sapiens, SK-MEL-28, melanoma; for CC50: read-out: LC50 (the source's name)
# UACC-62 = format: cell-based; conditions: Homo sapiens, UACC-62, melanoma; for CC50: read-out: LC50 (the source's name)
# IGROV1 = format: cell-based; conditions: Homo sapiens, IGROV-1; IGROV1, ovarian cancer
# OVCAR-3 = format: cell-based; conditions: Homo sapiens, OVCAR-3, ovarian cancer; for CC50: read-out: LC50 (the source's name)
# NCI/ADR-RES = format: cell-based, human; conditions: Homo sapiens, ovarian cancer; for CC50: read-out: LC50 (the source's name)
# SK-OV-3 = format: cell-based; conditions: Homo sapiens, SK-OV-3, ovarian cancer; for CC50: read-out: LC50 (the source's name)
# A498 = format: cell-based; conditions: Homo sapiens, A498, renal cancer; for CC50: read-out: LC50 (the source's name)
# RXF 393 = format: cell-based; conditions: Homo sapiens, RXF 393, renal cancer; for CC50: read-out: LC50 (the source's name)
# SN12C = format: cell-based; conditions: Homo sapiens, renal cancer; for CC50: read-out: LC50 (the source's name)
# TK-10 = format: cell-based; conditions: Homo sapiens, TK-10, renal cancer; for CC50: read-out: LC50 (the source's name)
# PC-3 = format: cell-based; conditions: Homo sapiens, PC-3, prostate cancer; for CC50: read-out: LC50 (the source's name)
# MDA-MB-231/ATCC = format: cell-based; conditions: Homo sapiens, breast cancer; for CC50: read-out: LC50 (the source's name)
# HS 578T = format: cell-based; conditions: Homo sapiens, breast cancer; for CC50: read-out: LC50 (the source's name)
# BT-549 = format: cell-based; conditions: Homo sapiens, BT-549, breast cancer; for CC50: read-out: LC50 (the source's name)
# T-47D = format: cell-based; conditions: Homo sapiens, T47D, breast cancer; for CC50: read-out: LC50 (the source's name)
# MDA-MB-468 = format: cell-based; conditions: Homo sapiens, MDA-MB-468, breast cancer; for CC50: read-out: LC50 (the source's name)
compound,measurement,setting,value
"CCOC(=O)c1c[nH]c(/C=N/NC(=O)c2[nH]c3ccc(Br)cc3c2-c2ccccc2)c1 [Derivative 3j, Ethyl (E)-5-((2-(5-bromo-3-phenyl-1H-indole-2-carbonyl)hydrazono)methyl)-1H-pyrrole-3-carboxylate]",GI50,HL-60 (TB),1500 nM
same,CC50,HL-60 (TB),9.88 µM
same,GI50,A549/ATCC,2.7 µM
same,CC50,A549/ATCC,51.8 µM
same,GI50,EKVX,4.57 µM
same,CC50,EKVX,43.1 µM
same,GI50,HOP-62,2.78 µM
same,CC50,HOP-62,54.4 µM
same,GI50,HOP-92,4.56 µM
same,CC50,HOP-92,58.6 µM
same,GI50,NCI-H23,3060 nM
same,CC50,NCI-H23,46.4 µM
same,GI50,NCI-H322M,5.63 µM
same,CC50,NCI-H322M,50 µM
same,CC50,COLO 205,55.2 µM
same,GI50,COLO 205,2490 nM
same,GI50,HCT-15,2930 nM
same,CC50,HCT-15,51.9 µM
same,GI50,KM12,2210 nM
same,CC50,KM12,33.9 µM
same,GI50,SW-620,3.36 µM
same,CC50,SW-620,76.2 µM
same,GI50,SF-268,2290 nM
same,CC50,SF-268,46.3 µM
same,GI50,SF-295,2340 nM
same,CC50,SF-295,24.4 µM
same,GI50,MALME-3M,6.06 µM
same,CC50,MALME-3M,54.9 µM
same,GI50,SK-MEL-2,2800 nM
same,CC50,SK-MEL-2,32.8 µM
same,GI50,SK-MEL-28,4.56 µM
same,CC50,SK-MEL-28,45.8 µM
same,GI50,UACC-62,2920 nM
same,CC50,UACC-62,42.6 µM
same,GI50,IGROV1,3.91 µM
same,GI50,OVCAR-3,2130 nM
same,CC50,OVCAR-3,23.1 µM
same,GI50,NCI/ADR-RES,1890 nM
same,CC50,NCI/ADR-RES,10.4 µM
same,GI50,SK-OV-3,4.53 µM
same,CC50,SK-OV-3,45.3 µM
same,GI50,A498,3.53 µM
same,CC50,A498,43.4 µM
same,GI50,RXF 393,1360 nM
same,CC50,RXF 393,22 µM
same,GI50,SN12C,2490 nM
same,CC50,SN12C,33.3 µM
same,GI50,TK-10,7.35 µM
same,CC50,TK-10,46.2 µM
same,GI50,PC-3,3.76 µM
same,CC50,PC-3,> 100 µM
same,GI50,MDA-MB-231/ATCC,2.85 µM
same,CC50,MDA-MB-231/ATCC,36.8 µM
same,GI50,HS 578T,2360 nM
same,CC50,HS 578T,> 100 µM
same,GI50,BT-549,2230 nM
same,CC50,BT-549,29.5 µM
same,GI50,T-47D,2.91 µM
same,CC50,T-47D,86.9 µM
same,GI50,MDA-MB-468,2470 nM
same,CC50,MDA-MB-468,24.2 µM
"O=C(N/N=C/c1ccc(C(=O)N2CCOCC2)[nH]1)c1[nH]c2ccc(Br)cc2c1-c1ccccc1 [Derivative 3n, (E)-5-Bromo-N′-((5-(morpholine-4-carbonyl)-1H-pyrrol-2-yl)methylene)-3-phenyl-1H-indole-2-carbohydrazide]",GI50,HL-60 (TB),1840 nM
same,CC50,HL-60 (TB),8.56 µM
same,GI50,A549/ATCC,3.88 µM
same,CC50,A549/ATCC,> 100 µM
same,GI50,EKVX,7.51 µM
same,CC50,EKVX,> 100 µM
same,GI50,HOP-62,3.36 µM
same,CC50,HOP-62,69.2 µM
same,GI50,HOP-92,6.14 µM
same,CC50,HOP-92,> 100 µM
same,GI50,NCI-H23,2830 nM
same,CC50,NCI-H23,69.8 µM
same,GI50,NCI-H322M,13.9 µM
same,CC50,NCI-H322M,> 100 µM
same,CC50,COLO 205,37.5 µM
same,GI50,COLO 205,3120 nM
same,GI50,HCT-15,2620 nM
same,CC50,HCT-15,> 100 µM
same,GI50,KM12,2910 nM
same,CC50,KM12,43.6 µM
same,GI50,SW-620,3.26 µM
same,CC50,SW-620,> 100 µM
same,GI50,SF-268,2510 nM
same,CC50,SF-268,> 100 µM
same,GI50,SF-295,1630 nM
same,CC50,SF-295,31 µM
same,GI50,MALME-3M,11.7 µM
same,CC50,MALME-3M,> 100 µM
same,GI50,SK-MEL-2,2800 nM
same,CC50,SK-MEL-2,48.3 µM
same,GI50,SK-MEL-28,6.1 µM
same,CC50,SK-MEL-28,> 100 µM
same,GI50,UACC-62,864 nM
same,CC50,UACC-62,63.7 µM
same,GI50,IGROV1,6.69 µM
same,GI50,OVCAR-3,2570 nM
same,CC50,OVCAR-3,47.4 µM
same,GI50,NCI/ADR-RES,1920 nM
same,CC50,NCI/ADR-RES,84.1 µM
same,GI50,SK-OV-3,5.68 µM
same,CC50,SK-OV-3,> 100 µM
same,GI50,A498,3.53 µM
same,CC50,A498,59.9 µM
same,GI50,RXF 393,1060 nM
same,CC50,RXF 393,14.7 µM
same,GI50,SN12C,3140 nM
same,CC50,SN12C,79.7 µM
same,GI50,TK-10,10.4 µM
same,CC50,TK-10,> 100 µM
same,GI50,PC-3,3.44 µM
same,CC50,PC-3,> 100 µM
same,GI50,MDA-MB-231/ATCC,4.81 µM
same,CC50,MDA-MB-231/ATCC,83.2 µM
same,GI50,HS 578T,1040 nM
same,CC50,HS 578T,> 100 µM
same,GI50,BT-549,2360 nM
same,CC50,BT-549,55.2 µM
same,GI50,T-47D,3.1 µM
same,CC50,T-47D,> 100 µM
same,GI50,MDA-MB-468,1980 nM
same,CC50,MDA-MB-468,75.5 µM
